The values that follow are results of earlier work, collected in patent publication US20150150473A1, “Drug-Enhanced Neurofeedback” (McLean Hospital Corporation, priority 2008, published 2015).

Structures are written as SMILES.

For this series the following is noted: in vivo.

For `N[C@@H]1CON=C1O` [DCS, d-cycloserine], the half-life result is “approximately 10 hours”.
